Reference: patent publication US10647665B2, “Biaryl urea derivative or salt thereof and preparation process and use for the same” (Fudan University, priority 2016, dated 2020)

How the values were obtained:
[1] = tested on: Mouse Th17 cell differentiation; experiment: Inhibition of mouse Th17 cell differentiation (IL-17 by intracellular staining and flow cytometry); type: cell-based; conditions: compound at 0.3 μM, mouse spleen CD4+ T cells, 96 hours
Experimental: Experimental method: Mouse spleen CD4^+ T cells were isolated and differentiated into Th17 cells. CD4^+ T cells were cultured in the environment of anti-CD3 (0.25 μg/mL), anti-CD28 (1 μg/mL), anti-IL4 (2 μg/mL), anti-IFN-γ (2 μg/mL), TGF-β (5 ng/mL), and IL6 (20 ng/mL), and then the test compound was added. After 96 hours, the differentiation efficiency of Th17 was analyzed. Before collection of cells, PMA at 50 ng/mL and ionomycin at 500 ng/mL were added for stimulation for 4 hours, and the ratio of IL-17 was detected by intracellular staining and flow cytometry. At the same time, we used Live/Dead Cell Dye (Invitrogen) staining method to analyze the cell survival rate, to judge whether the drug had toxicity to cells, and determine the inhibition rate of the compound at a concentration of 0.3 μM on IL-17 differentiation by Th 17 cells.

[2] = biological target: RORγ receptor (B-RORγ LBD) (Homo sapiens (Human), UniProt P51449); experiment: Inhibitory activity on RORγ receptor in vitro by fluorescence resonance energy transfer (FRET); type: biochemical; conditions: average of at least two independent tests
RORγ receptor (B-RORγ LBD), sequence (P51449 269-508): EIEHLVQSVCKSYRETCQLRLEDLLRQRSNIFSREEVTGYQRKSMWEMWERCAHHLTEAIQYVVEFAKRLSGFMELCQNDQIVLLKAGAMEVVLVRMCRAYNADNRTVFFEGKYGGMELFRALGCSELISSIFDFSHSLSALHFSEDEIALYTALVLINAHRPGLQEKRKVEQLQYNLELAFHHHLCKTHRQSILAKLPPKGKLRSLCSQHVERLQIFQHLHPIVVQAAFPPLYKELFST
Experimental: The inhibitory activity of compounds on RORγ receptor was determined by fluorescence resonance energy transfer (FRET) experiments. The inhibitory activity was expressed by half-inhibitory concentration (IC50).
1. Preparation of RORγ Buffer Solution
10 mL of DTT and 100 mL buffer solution were gently mixed together and ready to use.
2. Preparation of Compound Solution
(§1) 3. Preparation of Protein Mixture a. 40 nM B-RORγ LBD solution and 20 nM SA-APC solution were gently mixed together. The reaction mixture was incubated for 15 minutes at room temperature. Then 400 nM Biotin was added to the described above mixture. After gently mixed together, the resulting mixture was incubated for 10 minutes at room temperature. […]
as §1, with “b.” for “3. Preparation of Protein Mixture a.”, “Bioin-SRC1” for “B-RORγ LBD”, “10” for “20”, “SA-eu” for “SA-APC”, “together, and the” for “together. The”, “200” for “400”
d. A mixture of 0.1 μM alternative agonist
N-(2-chloro-6-fluorophenyl)-N-((20-methoxy-[1,10-biphenylyl]-4-substituted)methyl)benzenesulfonamide, 25 μL B-RORγ LBD/SA-APC and Bioin-SRC1/SA-eu mixture solution with test compound were added to one of the well of a 384-well plate, then they were centrifuged for 1 minute at 1000 rpm, and incubated at room temperature for 1 hour. The values were read on the Envision microplate detector and IC50 was calculated.

Row | SMILES | inhibition at 0.3 µM [1] | IC50 [2]
1 | O=C(O)Cc1ccc(CNC(=O)Nc2cc(Cl)c(-c3ccccc3OC(F)F)c(Cl)c2)cc1 [Example 1-20, 2-(4-((3-(2,6-dichloro-2′-(difluoromethoxy)-[1,1′-biphenyl]-4-yl)ureido)methyl)phenyl)acetic acid] | 0 to 40% | < 500 nM
2 | Cc1cc(NC(=O)NCc2ccc(CC(=O)O)cc2)cc(C)c1-c1ccccc1OC(F)F [Example 1-21, 2-(4-((3-(2′-(difluoromethoxy)-2,6-dimethyl-[1,1′-biphenyl]-4-yl)ureido)methyl)phenyl)acetic acid] | 0 to 40% | < 500 nM
3 | Cn1cc(-c2cc(NC(=O)NCc3ccc(CC(=O)O)cc3)ccc2-c2ccccc2OC(F)(F)F)cn1 [Example 1-22a, 2-(4-((3-(2-(1-methyl-1H-pyrazol-4-yl)-2′-(trifluoromethoxy)-[1,1′-biphenyl]-4-yl)ureido)methyl)phenyl)acetic acid] | 0 to 40% | 500 to 5000 nM
4 | Cn1cc(-c2cccc(OC(F)(F)F)c2-c2ccc(NC(=O)NCc3ccc(CC(=O)O)cc3)cc2)cn1 [Example 1-22b, 2-(4-((3-(2′-(1-methyl-1H-pyrazol-4-yl)-6′-(trifluoromethoxy)-[1,1′-biphenyl]-4-yl)ureido)methyl)phenyl)acetic acid] | 0 to 40% | 500 to 5000 nM
5 | O=C(O)Cc1ccc(CNC(=O)Nc2ccc(-c3ccccc3)cc2)cc1 [Example 1-23, 2-(4-((3-([1,1′-biphenyl]-4-yl)ureido)methyl)phenyl)acetic acid] | 0 to 40% | 5000 to 50000 nM
